Our source for the IC50 values is patent US11759462B2, “Spirocyclic compounds as tryptophan hydroxylase inhibitors” (priority 2013, dated 2023).

The target of this assay is T1, Recombinant human TPH1 (MBP tagged) (Homo sapiens, UniProt P17752).
T1 construct: cloning full length human TPH1 cDNA in to a bacterial pMAL-c5E expression vector; made in house; host or cells: E. coli BL21 (DE3)
T1 sequence (P17752 1-444): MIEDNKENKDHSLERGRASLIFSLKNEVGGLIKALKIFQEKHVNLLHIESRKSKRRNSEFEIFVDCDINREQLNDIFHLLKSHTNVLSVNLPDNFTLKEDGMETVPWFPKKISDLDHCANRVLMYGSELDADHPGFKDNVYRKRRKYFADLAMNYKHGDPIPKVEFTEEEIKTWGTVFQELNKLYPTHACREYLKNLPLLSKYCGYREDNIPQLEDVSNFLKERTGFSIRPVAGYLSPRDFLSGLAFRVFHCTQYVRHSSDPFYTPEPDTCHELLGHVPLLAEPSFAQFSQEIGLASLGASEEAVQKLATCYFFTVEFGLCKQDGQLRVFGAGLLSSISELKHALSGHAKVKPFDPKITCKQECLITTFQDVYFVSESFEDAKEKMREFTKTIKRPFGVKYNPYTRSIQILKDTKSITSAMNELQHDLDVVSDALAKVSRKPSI
Briefly: TPH1 in vitro inhibition assay (kinetic fluorescence). In kind it is biochemical. The procedure, abridged: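 Final mix: 15 nM MBP-TPH1, 30 μM Trp, 36 μM 6-methyltetrahydropterin, 25 μM ferrous ammonium sulfate, 50 mM MES pH 7.1, 1% DMSO, room temperature.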

Setting [1] is: read-out: TPH1 Range (TPH1 inhibition IC50).
Setting [2] is: TPH1 Range (TPH1 inhibition IC50).

The structures appear in SMILES notation. Read-outs that look alike come from different tables or passages of the source.

For `CCOc1cc(-c2cc(Cl)ccc2[C@@H](Oc2cc(N3CCC4(CC3)CN[C@H](C(=O)O)C4)nc(N)n2)C(F)(F)F)ccc1F` [Example 34bp, (S)-8-(2-amino-6-((R)-1-(5-chloro-3′-ethoxy-4′-fluoro-[1,1′-biphenyl]-2-yl)-2,2,2-trifluoroethoxy)pyrimidin-4-yl)-2,8-diazaspiro[4.5]decane-3-carboxylic acid], the IC50 under setting [1] was under 50 nM.

Consider `CC(C)(C)c1cccc(-c2cc(Cl)ccc2[C@@H](Oc2cc(N3CCC4(CC3)CN[C@H](C(=O)O)C4)nc(N)n2)C(F)(F)F)c1` [Example 34bq, (S)-8-(2-amino-6-((R)-1-(3′-(tert-butyl)-5-chloro-[1,1′-biphenyl]-2-yl)-2,2,2-trifluoroethoxy)pyrimidin-4-yl)-2,8-diazaspiro[4.5]decane-3-carboxylic acid], for which the IC50 under setting [2] was in the range of 50 to 300 nM.

For the molecule `CC(C)c1cc(-c2cc(Cl)ccc2[C@@H](Oc2cc(N3CCC4(CC3)CN[C@H](C(=O)O)C4)nc(N)n2)C(F)(F)F)ccn1` [Example 34bu, (S)-8-(2-amino-6-((R)-1-(4-chloro-2-(2-isopropylpyridin-4-yl)phenyl)-2,2,2-trifluoroethoxy)pyrimidin-4-yl)-2,8-diazaspiro[4.5]decane-3-carboxylic acid], the IC50 under setting [1] lay in the range of 50 to 300 nM.

For the molecule `Nc1nc(O[C@H](c2ccc(Cl)cc2-c2ccc(F)cc2)C(F)(F)F)cc(N2CCC3(CC2)CN[C@H](C(=O)O)C3)n1` [Example 34bv, (S)-8-(2-amino-6-((R)-1-(5-chloro-4′-fluoro-[1,1′-biphenyl]-2-yl)-2,2,2-trifluoroethoxy)pyrimidin-4-yl)-2,8-diazaspiro[4.5]decane-3-carboxylic acid], the IC50 under setting [1] lay in the range of 50 to 300 nM.

Turning to `Nc1nc(O[C@H](c2ccc(Cl)cc2-c2ccc(Cl)cc2)C(F)(F)F)cc(N2CCC3(CC2)CN[C@H](C(=O)O)C3)n1` [Example 34bw, (S)-8-(2-amino-6-((R)-1-(4′,5-dichloro-[1,1′-biphenyl]-2-yl)-2,2,2-trifluoroethoxy)pyrimidin-4-yl)-2,8-diazaspiro[4.5]decane-3-carboxylic acid], under setting [2], the half-maximal inhibitory concentration (IC50) lay in the range of 50 to 300 nM.

As to `Cc1ccc(-c2cc(Cl)ccc2[C@@H](Oc2cc(N3CCC4(CC3)CN[C@H](C(=O)O)C4)nc(N)n2)C(F)(F)F)cc1` [Example 34bx, (S)-8-(2-amino-6-((R)-1-(5-chloro-4′-methyl-[1,1′-biphenyl]-2-yl)-2,2,2-trifluoroethoxy)pyrimidin-4-yl)-2,8-diazaspiro[4.5]decane-3-carboxylic acid], the IC50 under setting [1] lay in the range of 50 to 300 nM.

As to `Nc1nc(O[C@H](c2ccc(Cl)cc2C2=CCCCC2)C(F)(F)F)cc(N2CCC3(CC2)CN[C@H](C(=O)O)C3)n1` [Example 34by, (S)-8-(2-amino-6-((R)-1-(5-chloro-2′,3′,4′,5′-tetrahydro-[1,1′-biphenyl]-2-yl)-2,2,2-trifluoroethoxy)pyrimidin-4-yl)-2,8-diazaspiro[4.5]decane-3-carboxylic acid], under setting [1], the half-inhibitory concentration (IC50) was 50 to 300 nM.

As for `Nc1nc(O[C@H](c2ccc(Cl)cc2-c2ccccc2)C(F)(F)F)cc(N2CCC3(CC2)CN[C@H](C(=O)O)C3)n1` [Example 34c, (S)-8-(2-amino-6-((R)-1-(5-chloro-[1,1′-biphenyl]-2-yl)-2,2,2-trifluoroethoxy)pyrimidin-4-yl)-2,8-diazaspiro[4.5]decane-3-carboxylic acid], the IC50 under setting [2] is 50 to 300 nM.

For the molecule `Nc1nc(O[C@H](c2ccc(Cl)cc2-c2cccc(C(=O)N3CCCC3)c2)C(F)(F)F)cc(N2CCC3(CC2)CN[C@H](C(=O)O)C3)n1` [Example 34ca, (S)-8-(2-amino-6-((R)-1-(5-chloro-3′-(pyrrolidine-1-carbonyl)-[1,1′-biphenyl]-2-yl)-2,2,2-trifluoroethoxy)pyrimidin-4-yl)-2,8-diazaspiro[4.5]decane-3-carboxylic acid], the IC50 under setting [1] was in the range of 50 to 300 nM.

With `Nc1nc(O[C@H](c2ccc(Cl)cc2-c2cccc(OC3CCCC3)c2)C(F)(F)F)cc(N2CCC3(CC2)CN[C@H](C(=O)O)C3)n1` [Example 34cb, (S)-8-(2-amino-6-((R)-1-(5-chloro-3′-(cyclopentyloxy)-[1,1′-biphenyl]-2-yl)-2,2,2-trifluoroethoxy)pyrimidin-4-yl)-2,8-diazaspiro[4.5]decane-3-carboxylic acid], the IC50 under setting [1] was 50 to 300 nM.

In the case of `Nc1nc(O[C@H](c2ccc(Cl)cc2-c2cccc(C(=O)NC3CCC(O)CC3)c2)C(F)(F)F)cc(N2CCC3(CC2)CN[C@H](C(=O)O)C3)n1` (stereo partly drawn) [Example 34cc, (S)-8-(2-amino-6-((R)-1-(5-chloro-3′-(((1R,4R)-4-hydroxycyclohexyl)carbamoyl)-[1,1′-biphenyl]-2-yl)-2,2,2-trifluoroethoxy)pyrimidin-4-yl)-2,8-diazaspiro[4.5]decane-3-carboxylic acid], the IC50 under setting [1] was 50 to 300 nM.

On to `CCc1cccc(-c2cc(Cl)ccc2[C@@H](Oc2cc(N3CCC4(CC3)CN[C@H](C(=O)O)C4)nc(N)n2)C(F)(F)F)c1` [Example 34cd, (S)-8-(2-amino-6-((R)-1-(5-chloro-3′-ethyl-[1,1′-biphenyl]-2-yl)-2,2,2-trifluoroethoxy)pyrimidin-4-yl)-2,8-diazaspiro[4.5]decane-3-carboxylic acid], for which, under setting [1], the IC50 was in the range of 50 to 300 nM.

For the molecule `Nc1nc(O[C@H](c2ccc(Cl)cc2-c2cccc(C(=O)NCCN3CCCC3)c2)C(F)(F)F)cc(N2CCC3(CC2)CN[C@H](C(=O)O)C3)n1` [Example 34cf, (S)-8-(2-amino-6-((R)-1-(5-chloro-3′-((2-(pyrrolidin-1-yl)ethyl)carbamoyl)-[1,1′-biphenyl]-2-yl)-2,2,2-trifluoroethoxy)pyrimidin-4-yl)-2,8-diazaspiro[4.5]decane-3-carboxylic acid], the IC50 under setting [1] was in the range of 300 to 3000 nM.

`Nc1nc(O[C@H](c2ccc(Cl)cc2-c2cccc(C(=O)N3CCOCC3)c2)C(F)(F)F)cc(N2CCC3(CC2)CN[C@H](C(=O)O)C3)n1` [Example 34cg, (S)-8-(2-amino-6-((R)-1-(5-chloro-3′-(morpholine-4-carbonyl)-[1,1′-biphenyl]-2-yl)-2,2,2-trifluoroethoxy)pyrimidin-4-yl)-2,8-diazaspiro[4.5]decane-3-carboxylic acid]: under setting [1], the IC50 lay within 50 to 300 nM.

Regarding `CN1CCN(C(=O)c2cccc(-c3cc(Cl)ccc3[C@@H](Oc3cc(N4CCC5(CC4)CN[C@H](C(=O)O)C5)nc(N)n3)C(F)(F)F)c2)CC1` [Example 34ch, (S)-8-(2-amino-6-((R)-1-(5-chloro-3′-(4-methylpiperazine-1-carbonyl)-[1,1′-biphenyl]-2-yl)-2,2,2-trifluoroethoxy)pyrimidin-4-yl)-2,8-diazaspiro[4.5]decane-3-carboxylic acid], the IC50 under setting [1] is under 50 nM.

For `Cc1ncc(-c2cc(Cl)ccc2[C@@H](Oc2cc(N3CCC4(CC3)CN[C@H](C(=O)O)C4)nc(N)n2)C(F)(F)F)s1` [Example 34ci, (S)-8-(2-amino-6-((R)-1-(4-chloro-2-(2-methylthiazol-5-yl)phenyl)-2,2,2-trifluoroethoxy)pyrimidin-4-yl)-2,8-diazaspiro[4.5]decane-3-carboxylic acid], the IC50 under setting [1] lay within 50 to 300 nM.

For `Cn1cccc(-c2cc(Cl)ccc2[C@@H](Oc2cc(N3CCC4(CC3)CN[C@H](C(=O)O)C4)nc(N)n2)C(F)(F)F)c1=O` [Example 34cj, (S)-8-(2-amino-6-((R)-1-(4-chloro-2-(1-methyl-2-oxo-1,2-dihydropyridin-3-yl)phenyl)-2,2,2-trifluoroethoxy)pyrimidin-4-yl)-2,8-diazaspiro[4.5]decane-3-carboxylic acid], the IC50 under setting [1] is 50 to 300 nM.

As usually defined, the IC50 is the point on the concentration scale where inhibition reaches its midpoint.
